Data as given in patent publication US8008285B2, “Droxidopa and pharmaceutical composition thereof for the treatment of fibromyalgia” (Chelsea Therapeutics, Inc., priority 2007, dated 2011).
Where “and” joins values, the source holds several entries; their conditions need not be identical. Equal values may be shown once.

How the values were obtained:
plasma norepinephrine = assay: Plasma norepinephrine concentration after dosing droxidopa combinations; assay type: in vivo, rat; conditions: 2 hours post-dosing, rats
Method: The pharmacokinetic properties of droxidopa combinations useful in the methods of the invention were evaluated in male Sprague Dawley rats.
Administration of droxidopa combinations was seen to affect plasma norepinephrine concentration in comparison to administration of droxidopa alone. Formulation 0 indicates administration of the vehicle alone without droxidopa or a droxidopa combination of the invention and provides a baseline comparative of plasma norepinephrine levels in an untreated subject.

[1] = system: Chronic Constriction Injury (CCI) model; assay: Chronic Constriction Injury (CCI) model, mechanical allodynia (electronic Von Frey); assay type: in vivo, rat; conditions: 60 minutes post dosing; for levels of allodynia compared with vehicle treated animals: ANOVA followed by t-test, significant at P<0.05; for levels of allodynia compared with vehicle treated animals / (3) Post-Treatment (tactile pressure threshold), Ave. / (3) − (2), Ave. / Inhibition (%) of allodynia, Ave. / (3) Post-Treatment (tactile pressure threshold) / (3) − (2) (Post-Treatment minus Pre-Treatment) / Inhibition (%) of allodynia: IP; for (3) Post-Treatment (tactile pressure threshold), Ave. / (3) − (2), Ave. / Inhibition (%) of allodynia, Ave.: group average of 10 animals; for (3) Post-Treatment (tactile pressure threshold), Ave. / (3) − (2), Ave. / Inhibition (%) of allodynia, Ave. / (3) Post-Treatment (tactile pressure threshold) / (3) − (2) (Post-Treatment minus Pre-Treatment) / Inhibition (%) of allodynia: 400 mg/kg droxidopa and 20 mg/kg carbidopa, or 18 mg/kg fluoxetine; for (3) Post-Treatment (tactile pressure threshold) / (3) − (2) (Post-Treatment minus Pre-Treatment) / Inhibition (%) of allodynia: individual animals, male Wistar rats
Method: Treatment of fibromyalgia through reducing sensitivity to chronic pain using droxidopa in combination with carbidopa was investigated using the Chronic Constriction Injury (CCI) model. […] Specifically, after anesthetization using pentobarbital (50 mg/kg, 5 ml/kg, i.p.), the sciatic nerve was exposed at mid-thigh level, and three ligatures (4-0 silk suture), about 1 mm apart, were loosely tied around the nerve. The animals were then housed individually in cages with soft bedding for seven days before testing for mechanical allodynia. […] The tip was gradually applied with sufficient force to cause slight buckling of the filament against the paw. […] Allodynia was calculated according to the following formula: % Inhibition=ΔTreatment/ΔBlank×100%. where Δ Treatment is the change in tactile pressure threshold over pre-treatment after ligation [(Post-Treatment)-(Pre-Treatment)], and Δ Blank is change in tactile pressure threshold over pre-ligation but before treatment [(Pre-Ligation)-(Pre-Treatment)]. A one-way ANOVA followed by t-test was applied for comparison between test substance treated groups and the vehicle control group. Activity was considered significant at P<0.05.

MAO-A = target: T1, MAO-A (Homo sapiens, UniProt P21397); conditions: cited from earlier work
T1 sequence (P21397 1-527): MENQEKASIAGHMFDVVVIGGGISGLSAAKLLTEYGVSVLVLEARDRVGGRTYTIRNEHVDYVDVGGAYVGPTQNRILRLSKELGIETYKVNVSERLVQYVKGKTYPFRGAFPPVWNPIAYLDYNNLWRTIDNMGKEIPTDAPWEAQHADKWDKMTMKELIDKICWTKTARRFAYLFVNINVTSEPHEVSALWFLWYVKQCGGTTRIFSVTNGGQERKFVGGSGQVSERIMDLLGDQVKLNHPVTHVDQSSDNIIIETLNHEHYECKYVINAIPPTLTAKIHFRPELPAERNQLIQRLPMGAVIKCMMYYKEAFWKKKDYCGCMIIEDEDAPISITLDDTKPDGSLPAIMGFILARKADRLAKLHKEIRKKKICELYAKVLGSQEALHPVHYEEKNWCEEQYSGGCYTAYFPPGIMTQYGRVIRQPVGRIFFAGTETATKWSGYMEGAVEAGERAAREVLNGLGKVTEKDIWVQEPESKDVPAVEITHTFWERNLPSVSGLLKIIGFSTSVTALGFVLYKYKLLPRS

## NC(C(=O)O)C(O)c1ccc(O)c(O)c1 (stereo not drawn) [Droxidopa, threo-3-(3,4-dihydroxyphenyl)serine]
Plasma norepinephrine
  increase in plasma norepinephrine concentration (fold over vehicle alone): ~5 fold
[1]
  levels of allodynia compared with vehicle treated animals: significantly decreased levels of allodynia
  (3) Post-Treatment (tactile pressure threshold), Ave.: 21.7
  (3) − (2), Ave.: 13.2
  Inhibition (%) of allodynia, Ave.: 65.7%
  (3) Post-Treatment (tactile pressure threshold): 26.3 and 32.1 and 23.4 and 26.2 and 22.9 and 11.4 and 20.1 and 12.6 and 22.3 and 19.7
  (3) − (2) (Post-Treatment minus Pre-Treatment): 16.2 and 24.4 and 16.7 and 14.4 and 16.3 and 2.8 and 13.8 and 6 and 10.9 (2×)
  Inhibition (%) of allodynia: total allodynia inhibition in several test subjects and 104.5% and 115.6% and 66.3% and 75.8% and 74.4% and 11.5% and 72.6% and 26.1% and 62.3% and 48.0%

## CNCCC(Oc1ccc(C(F)(F)F)cc1)c1ccccc1 (stereo not shown) [Fluoxetine, fluoxetine]
[1]
  levels of allodynia compared with vehicle treated animals: not significantly different from vehicle-treated rats
  (3) Post-Treatment (tactile pressure threshold), Ave.: 9.2
  (3) − (2), Ave.: 0.4
  Inhibition (%) of allodynia, Ave.: 0.7%
  (3) Post-Treatment (tactile pressure threshold): 14.4 and 12.4 and 11.2 and 9.7 and 7 and 10.4 and 6.5 and 8.8 and 6 and 5.9
  (3) − (2) (Post-Treatment minus Pre-Treatment): 5.3 and 1.2 and 3 (2×) and 0.6 (2×) and 1.6 and −5.5 and −2.7 and −3.6
  Inhibition (%) of allodynia: 25.0% and 5.9% and 17.3% and 3.8% (2×) and 6.1% and 12.2% and −40.1% and −12.1% and −14.6%
[1]; listed as fluoxetine
  Inhibition (%) of allodynia, Ave.: less than 1%
  Inhibition (%) of allodynia: 25%
[1]; individual fluoxetine-treated subjects, 18 mg/kg IP
  increases in allodynia: ≤ 40.1%

## O=C(NCCN1CCOCC1)c1ccc(Cl)cc1 [moclobemide]
MAO-A
  selectivity for MAO-A than MAO-B: approximately three
